In patent publication US20240358693A1, “METHODS OF TREATING PAIN” (Aisa Pharma, Inc., priority 2023, published 2024):

Test system: participants with SSc-RP
Assay: Adverse events and serious adverse events (safety, tolerability)
Format: in vivo
Description: An AE is any event, side effect, or other untoward medical occurrence that occurs in conjunction with the use of a medicinal product in humans, whether or not considered to have a causal relationship to this treatment.
Severity of AEs will be graded by the Investigator as one of: • Mild (Grade 1): A type of AE that is usually transient and may require only minimal treatment or therapeutic intervention.
An SAE is an AE occurring during any study phase (i.e., baseline, treatment, washout, or follow-up), and at any dose of the study drug (active or placebo), that fulfills one or more of the following: • Results in death • It is immediately life-threatening • It requires in participant hospitalization or prolongation of existing hospitalization • It results in persistent or significant disability or incapacity • Results in a congenital abnormality or birth defect • It is an important medical event that may jeopardize the participant or may require medical intervention to prevent one of the outcomes listed above.
Treatment-emergent AEs (TEAEs) are defined as AEs that occur or worsen after the dose of study drug. If the timing of the start of an AE could not be determined unambiguously from the start or end dates provided, it will be assumed to be a TEAE. An AE is considered related if the relationship to either of the study drug has been indicated as possibly or probably or definite related by the investigator. An AE leading to study withdrawal is defined as an AE that cause a subject early terminated from the study. AEs will be identified as emerging in the following parts: • TEAEs for Part A will be those that started during Part A (i.e., from the first dose in Part A to end of follow up of Part A). • TEAEs for Part B will be those that started during Part B (i.e., from the first dose in Part B to end of follow-up of Part B).
Adverse events were coded using the most current version of the MedDRA® Version 22.0 or higher. The analysis of AEs was based on the concept of treatment emergent AEs. Treatment emergent AEs were tabulated by treatment group and included the number of participants for whom the event occurred, the severity, and relationship to study drug. Treatment emergent AEs (TEAEs) leading to discontinuation and SAEs with onset after the start of study drug were also summarized. All AEs and SAEs (including those with onset or worsening before the start of study drug) through the end of the study were listed.

SMILES	Safety: number of AE (Cilnidipine 20 mg, HA-mild, n = 8)	Safety: withdrawals (Cilnidipine 20 mg, n = 8)	Safety: number of AE (Pooled Cilnidipine, in combo with T, n = 9)	Safety: withdrawals (Pooled Cilnidipine, n = 9)	incidence of Adverse Events / overall adverse event rate (all patients who received any dose of cilnidipine (n=17))	tolerability (cilnidipine 10 mg and 20 mg, alone or in combination with tadalafil)	severity grade of adverse events reported (patients treated with cilnidipine)	Safety: grade of Adverse Events (AEs) (summary of data (Table S))	Safety: treatment D/Cs (discontinuations) (summary of data (Table S))	Safety: worst AE by group (in vivo)
COCCOC(=O)C1=C(C)NC(C)=C(C(=O)OC/C=C/c2ccccc2)C1c1cccc([N+](=O)[O-])c1 (stereo not shown) [Cilnidipine, cilnidipine]	1AE (HA-mild; 1	1AE (HA-mild; 1	1AE (in combo with T);	no withdrawals	17%	well tolerated	only mild (Grade 1)	Grade 1 Adverse	No treatment D/Cs	
CN1CC(=O)N2[C@H](c3ccc4c(c3)OCO4)c3[nH]c4ccccc4c3C[C@@H]2C1=O [Tadalafil, tadalafil]										Worst AE in tadalafil
